Key:
[1] = 101 kPa, Liquid; for viscosity: Capillary tube (Ostwald / Ubbelohde) method; for mass density: Vibrating tube method
[2] = xn = mol fraction of the nth substance listed; conditions: 101 kPa, Liquid, x2 = 0; for viscosity: Capillary tube (Ostwald / Ubbelohde) method; for mass density: Vibrating tube method

CC(=O)[O-].CCn1cc[n+](C)c1 [1-ethyl-3-methylimidazolium acetate]
[1]
Conditions | mass density [kg/m3] | viscosity [mPa·s]
298.15 K | 1099.04 | 138.4
308.15 K | 1092.95 | 76.1
318.15 K | 1086.88 | 45.9
328.15 K | 1080.86 | 30.1
338.15 K | 1074.86 | 20.8
348.15 K | 1071.37 | 14.28
358.15 K | 1063.03 | 11.53

CCOS(=O)(=O)[O-].CCn1cc[n+](C)c1 [1-ethyl-3-methylimidazolium ethyl sulfate] + CC(=O)[O-].CCn1cc[n+](C)c1
[2]
Conditions | mass density [kg/m3] | viscosity [mPa·s]
298.15 K | 1238.68 | 96.62
308.15 K | 1231.92 | 60.41
318.15 K | 1225.2 | 39.95
328.15 K | 1218.51 | 28.91
338.15 K | 1211.88 | 20.63
348.15 K | 1208.19 | 15.66
358.15 K | 1198.75 | 12.23

CCOS(=O)(=O)[O-].CCn1cc[n+](C)c1 [1-ethyl-3-methylimidazolium ethyl sulfate]
[1]
Conditions | mass density [kg/m3] | viscosity [mPa·s]
298.15 K | 1238.68 | 96.62
308.15 K | 1231.92 | 60.41
318.15 K | 1225.2 | 39.95
328.15 K | 1218.51 | 28.91
338.15 K | 1211.88 | 20.63
348.15 K | 1208.19 | 15.66
358.15 K | 1198.75 | 12.23
